pIC50: −log10 of the molar value. Converted amounts (≈) assume the structure as drawn. Where two headings read alike, the source gives them in different places.
Columns and labels:
[1] = tested on: Trichophyton interdigitale CCM 8377 (ATCC 9533); assay: Antifungal microdilution broth (EUCAST), TI; format: cell-based; details: Trichophyton interdigitale, 72 h, read-out: TI MIC
[2] = tested on: Aspergillus flavus CCM 8363; assay: Antifungal microdilution broth (EUCAST), AFla; format: cell-based; details: Aspergillus flavus, CCM8363; read after 24 h; read-out: AFla MIC
[3] = tested on: Mycobacterium smegmatis DSM 43465 (ATCC 607); assay: Microplate Alamar Blue Assay (MABA), M. smegmatis; format: cell-based; details: Mycolicibacterium smegmatis, read-out: M. smegmatis MIC
[4] = tested on: Aspergillus fumigatus ATCC 204305; assay: Antifungal microdilution broth (EUCAST), AF; format: cell-based; details: Aspergillus fumigatus, ATCC204305; read after 24 h; read-out: AF MIC
[5] = tested on: Staphylococcus epidermidis CCM 4418 (ATCC 12228); assay: Antibacterial microdilution broth (EUCAST), SE; format: cell-based; details: read after 24 h, read-out: SE MIC
[6] = tested on: Candida albicans CCM 8320 (ATCC 24433); assay: Antifungal microdilution broth (EUCAST), CA; format: cell-based; details: Candida albicans; read after 24 h; read-out: CA MIC
[7] = tested on: Candida krusei CCM 8271 (ATCC 6258); assay: Antifungal microdilution broth (EUCAST), CK; format: cell-based; details: Pichia kudriavzevii; read after 24 h; read-out: CK MIC
[8] = tested on: Staphylococcus aureus subsp. aureus CCM 4223 (ATCC 29213); assay: Antibacterial microdilution broth (EUCAST), SA; format: cell-based; details: Staphylococcus aureus; read after 24 h; read-out: SA MIC
[9] = tested on: HepG2 human hepatocellular carcinoma cells; assay: In vitro HepG2 cytotoxicity (CellTiter 96); details: for pIC50: * limit = highest evaluated concentration (precipitation in medium), ** over the 1000 µM limit; for solubility in the testing medium (in words): HepG2 cell culture medium
[10] = tested on: Enterococcus faecalis CCM 4224 (ATCC 29212); assay: Antibacterial microdilution broth (EUCAST), EF; format: cell-based; details: Enterococcus faecalis; read after 24 h; read-out: EF MIC
[11] = tested on: Candida parapsilosis CCM 8260 (ATCC 22019); assay: Antifungal microdilution broth (EUCAST), CP; format: cell-based; details: Lodderomyces parapsilosis; read after 24 h; read-out: CP MIC
[12] = tested on: Mycobacterium tuberculosis H37Ra ITM-M006710 (ATCC 9431); assay: Microplate Alamar Blue Assay (MABA), Mtb H37Ra; format: cell-based; details: for MIC: Mycobacterium tuberculosis, 120 h, pH 6.6, MABA, Middlebrook 7H9 broth pH 6.6, resazurin after 120 h, read-out: Mtb H37Ra MIC
[13] = tested on: Pseudomonas aeruginosa CCM 3955 (ATCC 27853); assay: Antibacterial microdilution broth (EUCAST), PA; format: cell-based; details: Pseudomonas aeruginosa; read after 24 h; read-out: PA MIC
[14] = tested on: Acinetobacter baumannii DSM 30007 (ATCC 19606); assay: Antibacterial microdilution broth (EUCAST), ACI; format: cell-based; details: Acinetobacter baumannii; read after 24 h; read-out: ACI MIC
[15] = tested on: Klebsiella pneumoniae CCM 4415 (ATCC 10031); assay: Antibacterial microdilution broth (EUCAST), KP; details: read after 24 h
[16] = tested on: Escherichia coli CCM 3954 (ATCC 25922); assay: Antibacterial microdilution broth (EUCAST), EC; format: cell-based; details: Escherichia coli; read after 24 h; read-out: EC MIC
[17] = tested on: M. aurum DSM 43999 (ATCC 23366); assay: Microplate Alamar Blue Assay (MABA), M. aurum; format: cell-based; details: Mycolicibacterium aurum, read-out: M. aurum MIC
[18] = tested on: Lichtheimia corymbifera CCM 8077; assay: Antifungal microdilution broth (EUCAST), LC; format: cell-based; details: Lichtheimia corymbifera, CCM8077; read after 24 h; read-out: LC MIC
[19] = tested on: Staphylococcus aureus subsp. aureus methicillin-resistant (MRSA) CCM 4750 (ATCC 43300); assay: Antibacterial microdilution broth (EUCAST), MRSA; format: cell-based; details: Staphylococcus aureus; read after 24 h; read-out: MRSA MIC
[20] = tested on: Candida tropicalis CCM 8264 (ATCC 750); assay: Antifungal microdilution broth (EUCAST), CT; format: cell-based; details: Candida tropicalis; read after 24 h; read-out: CT MIC
[21] = tested on: Mycobacterium tuberculosis H37Rv CNCTC My 331/88 (ATCC 27294); assay: MABA microdilution, Mtb H37Rv; format: cell-based; details: Mycobacterium tuberculosis, read-out: Mtb H37Rv MIC
[22] = Homo sapiens, HepG2, 24 h, read-out: HepG2 IC50, 24 h incubation

SMILES | MIC [1] [µM] | MIC [2] [µM] | MIC ([3]; MABA, resazurin after 48 h) [µg/mL] | MIC [4] [µM] | MIC [5] [µM] | MIC [6] [µM] | melting point [°C] | MIC [7] [µM] | MIC [8] [µM] | pIC50 [9, 22] | MIC [10] [µM] | MIC [11] [µM] | MIC [12] [µg/mL] | MIC [13] [µM] | MIC [14] [µM] | KP MIC [15] [µM] | MIC [16] [µM] | MIC [18] [µM] | MIC [19] [µM] | MIC [20] [µM] | also measured
CCc1ccc(C(=O)Nc2nccnc2C(N)=O)cc1 [Compound 5] | > 250 | > 250 | ≥ 500 | > 250 | > 250 | > 250 | 215.5 to 218.5 | > 250 | > 250 | < 4.00 | > 250 | > 250 | ≥ 500 | > 250 | > 250 | > 250 | > 250 | > 250 | > 250 | > 250 | antimycobacterial activity (in words) ([12]; activity refers to Mtb H37Ra from the primary screening if not otherwise stated): no activity; MIC ([17]; MABA, resazurin after 72 h): ≥ 500 µg/mL
NC(=O)c1nccnc1NC(=O)c1cccc(F)c1 [Compound 11] | > 250 | > 250 |  | > 250 | > 250 | > 250 | 234.1 to 236 | > 250 | > 250 | < 4.30 | > 250 | > 250 | ≥ 125 | > 250 | > 250 | > 250 | > 250 | > 250 | > 250 | > 250 | MIC ([3]; 48 h): ≥ 125 µg/mL; solubility in the testing medium (in words) [9]: low solubility; MIC ([17]; 72 h): ≥ 125 µg/mL
NC(=O)c1nccnc1NC(=O)c1ccc(Br)cc1 [Compound 18] | > 125 | > 125 | 125 (≈ 389 µM) | > 125 | > 500 | > 125 |  | > 125 | > 500 | < 4.60 | > 500 | > 125 | 1.95 (≈ 6.07 µM) | > 500 | > 500 | > 500 | > 500 | > 125 | > 500 | > 125 | MIC [21]: 6.25 µg/mL (≈ 19.5 µM); solubility in the testing medium (in words) [9]: low solubility; MIC ([17]; MABA, resazurin after 72 h): ≥ 250 µg/mL
NC(=O)c1nccnc1NC(=O)c1ccc([N+](=O)[O-])cc1 [Compound 21, 3-(4-nitrobenzamido)pyrazine-2-carboxamide] | > 125 | > 125 | 250 (≈ 870 µM) | > 125 | > 125 | > 125 | > 300 | > 125 | > 125 | < 4.00 | > 125 | > 125 | 250 (≈ 870 µM) | > 125 | > 125 | > 125 | > 125 | > 125 | > 125 | > 125 | MIC ([17]; MABA, resazurin after 72 h): ≥ 500 µg/mL
O=c1[nH]c(-c2ccc(Br)cc2)nc2nccnc12 [Compound 43] | > 125 | > 125 | ≥ 500 | > 125 | > 125 | > 125 | 315.4 to 317.4 | > 125 | > 125 | < 3.60 | > 125 | > 125 | 31.2 (≈ 103 µM) | > 125 | > 125 | > 125 | > 125 | > 125 | > 125 | > 125 | MIC ([17]; MABA, resazurin after 72 h): ≥ 500 µg/mL
CNC(=O)c1nccnc1NC(=O)c1ccc(C)cc1 [Compound 33] | > 500 | > 500 | ≥ 500 | > 500 | > 500 | > 500 | 178.4 to 179.5 | > 500 | > 500 | 3.12 | > 500 | > 500 | 250 (≈ 925 µM) | > 500 | > 500 | > 500 | > 500 | > 500 | > 500 | > 500 | pIC50 ([9]; read-out: HepG2 IC50, 24 h incubation): 3.12; MIC ([17]; MABA, resazurin after 72 h): 125 µg/mL (≈ 462 µM)

Reference: paper PMC9687610, “Adenosine-Mimicking Derivatives of 3-Aminopyrazine-2-Carboxamide: Towards Inhibitors of Prolyl-tRNA Synthetase with Antimycobacterial Activity” (Biomolecules, 2022)
